According to patent US10968231B2, “Substituted cyclyl-acetic acid derivatives for the treatment of metabolic disorders” (TAKEDA PHARMACEUTICAL COMPANY LIMITED, priority 2017, dated 2021):

Each molecule was assayed against T1, human GPR40 (Homo sapiens, UniProt O14842) (assay: Evaluation of human GPR40 agonist activity with increase in intracellular Ca2+ concentration as an index (FLIPR)). Details: test compound at final concentration of 1 μM; CHO(dhfr−) cells stably expressing human GPR40; 100% = activity of 10 μM of compound of WO 2015/020184 Example 153, 0% = DMSO.
T1 construct: expressed in transfected cells
T1 sequence (O14842 whole entry): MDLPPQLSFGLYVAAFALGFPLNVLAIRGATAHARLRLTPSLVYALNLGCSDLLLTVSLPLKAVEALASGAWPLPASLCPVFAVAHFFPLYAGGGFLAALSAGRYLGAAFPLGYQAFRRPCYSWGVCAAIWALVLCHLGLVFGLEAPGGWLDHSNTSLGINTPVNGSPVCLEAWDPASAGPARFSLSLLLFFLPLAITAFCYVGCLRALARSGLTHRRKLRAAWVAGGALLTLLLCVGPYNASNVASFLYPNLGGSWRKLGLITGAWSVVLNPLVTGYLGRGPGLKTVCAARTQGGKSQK
Format: cell-based
Procedure: Evaluation of Human GPR40 Agonist Activity with Increase in Intracellular Ca^2+ Concentration as an Index
CHO(dhfr−) cells that stably expressed human GPR40 were suspended in MEMα (Wako Pure Chemical Industries, Ltd.) containing 10% dialyzed serum (Thermo Fisher Scientific), 10 mM HEPES (Thermo Fisher Scientific), 100 U/mL penicillin, 100 μg/mL streptomycin (Wako Pure Chemical Industries, Ltd.), and plated on a 384 well black/clear cell culture plate at 10,000 cells/well. After culture overnight in a CO2 incubator at 37° C., the culture supernatant was removed, and loading buffer [Ca^2+ probe attached to Calcium Kit II-iCellux (DOJINDO) was dissolved in assay buffer (20 mM HEPES, 0.1% fatty acid-free BSA (Wako Pure Chemical Industries, Ltd.), 2.5 mM probenecid (DOJINDO)-containing HBSS (Thermo Fisher Scientific))] was added at 30 μL/well. After leaving for 1 hr at room temperature under light shielding, assay buffer containing the test compound at a final concentration of 1 μM was added at 10 μL/well in fluorescence plate reader FLIPR Tetra (Molecular Devices), and the fluorescence amount was successively measured. Human GPR40 agonist activity was calculated using an increase in the intracellular Ca^2+ concentration as an index, wherein the activity of 10 μM of the compound of WO 2015/020184 (Example 153: 3-cyclopropyl-3-(2-((1-(2-((2-fluoro-2-methylpropyl)(4-methylpyridin-2-yl)carbamoyl)-5-methoxyphenyl)piperidin-4-yl)methoxy)pyridin-4-yl)propanoic acid) was 100%, and the activity when DMSO was added instead of the test compound was 0%.

Structure (SMILES)	activity (human GPR40 agonist activity) [%]
COc1cc(N2CCC(COc3cc4c(cn3)OCCC4CC(=O)O)CC2)c(OCC(F)(F)C(F)(F)F)cn1 (stereo not shown) [Example 11, (6-((1-(2-methoxy-5-(2,2,3,3,3-pentafluoropropoxy)pyridin-4-yl)piperidin-4-yl)methoxy)-3,4-dihydro-2H-pyrano[2,3-c]pyridin-4-yl)acetic acid]	107
COc1cc(N2CCC(COc3cc4c(cn3)OCCC4CC(=O)O)CC2)c(OCC(F)(F)C(F)(F)F)cn1 (stereo not shown) [Example 2, (6-((1-(2-methoxy-5-(2,2,3,3,3-pentafluoropropoxy)pyridin-4-yl)piperidin-4-yl)methoxy)-3,4-dihydro-2H-pyrano[2,3-c]pyridin-4-yl)acetic acid]	108
COc1cc(N2CCC(COc3cc4c(cn3)OCCC4CC(=O)O)CC2)c(C2CCN(CC(F)(F)F)CC2)cn1 (single isomer, unassigned) [Example 5, (6-((1-(2-methoxy-5-(1-(2,2,2-trifluoroethyl)piperidin-4-yl)pyridin-4-yl)piperidin-4-yl)methoxy)-3,4-dihydro-2H-pyrano[2,3-c]pyridin-4-yl)acetic acid]	111
COc1cc(N2CCC(COc3cc4c(cn3)OCCC4CC(=O)O)CC2)c(C2CCN(CC(F)(F)F)CC2)cn1 (single isomer, unassigned) [Example 6, (6-((1-(2-methoxy-5-(1-(2,2,2-trifluoroethyl)piperidin-4-yl)pyridin-4-yl)piperidin-4-yl)methoxy)-3,4-dihydro-2H-pyrano[2,3-c]pyridin-4-yl)acetic acid]	59
COc1ccc(C2CCN(CC(F)(F)F)CC2)c(N2CCC(COc3cc4c(cn3)CCC4CC(=O)O)CC2)c1 (stereo not shown) [Example 4, (3-((1-(5-methoxy-2-(1-(2,2,2-trifluoroethyl)piperidin-4-yl)phenyl)piperidin-4-yl)methoxy)-6,7-dihydro-5H-cyclopenta[c]pyridin-5-yl)acetic acid]	108
COc1ccc(C2CCN(CC(F)(F)F)CC2)c(N2CCC(COc3cc4c(cn3)CCC4CC(=O)O)CC2)c1 (stereo not shown) [Example 29, (3-((1-(5-methoxy-2-(1-(2,2,2-trifluoroethyl)piperidin-4-yl)phenyl)piperidin-4-yl)methoxy)-6,7-dihydro-5H-cyclopenta[c]pyridin-5-yl)acetic acid]	65
COc1ccc(C2CCN(CC(F)(F)F)CC2)c(N2CCC(COc3cc4c(cn3)OCCC4CC(=O)O)CC2)c1 (stereo not shown) [Example 36, (6-((1-(5-methoxy-2-(1-(2,2,2-trifluoroethyl)piperidin-4-yl)phenyl)piperidin-4-yl)methoxy)-3,4-dihydro-2H-pyrano[2,3-c]pyridin-4-yl)acetic acid]	110
COc1cc(N2CCC(COc3cc4c(cn3)OCCC4CC(=O)O)CC2)c(OCC(F)(F)C(F)(F)F)cn1 (stereo not shown) [Example 17, (6-((1-(2-methoxy-5-(2,2,3,3,3-pentafluoropropoxy)pyridin-4-yl)piperidin-4-yl)methoxy)-3,4-dihydro-2H-pyrano[2,3-c]pyridin-4-yl)acetic acid]	58
COc1cc(N2CCC(COc3cc4c(cn3)OCCC4CC(=O)O)CC2)c(C2CCN(CC(F)(F)F)CC2)cn1 (single isomer, unassigned) [Example 7, (6-((1-(2-methoxy-5-(1-(2,2,2-trifluoroethyl)piperidin-4-yl)pyridin-4-yl)piperidin-4-yl)methoxy)-3,4-dihydro-2H-pyrano[2,3-c]pyridin-4-yl)acetic acid]	107
COc1ccc(C2CCN(CC(F)(F)F)CC2)c(N2CCC(COc3cc4c(cn3)CCC4CC(=O)O)CC2)c1 (stereo not shown) [Example 10, (3-((1-(5-methoxy-2-(1-(2,2,2-trifluoroethyl)piperidin-4-yl)phenyl)piperidin-4-yl)methoxy)-6,7-dihydro-5H-cyclopenta[c]pyridin-5-yl)acetic acid]	105
COc1cc(N2CCC(COc3cc4c(cn3)CCC4CC(=O)O)CC2)c(OCC(F)(F)C(F)(F)F)cn1 (stereo not shown) [Example 3, (3-((1-(2-methoxy-5-(2,2,3,3,3-pentafluoropropoxy)pyridin-4-yl)piperidin-4-yl)methoxy)-6,7-dihydro-5H-cyclopenta[c]pyridin-5-yl)acetic acid]	109

Results, then the molecule that gave them:

activity (human GPR40 agonist activity) [%]	Structure (SMILES)
107	COc1ccc(CCC(F)(F)F)c(N2CCC(COc3cc4c(cn3)OCCC4CC(=O)O)CC2)c1 (stereo not shown) [Example 1, (6-((1-(5-methoxy-2-(3,3,3-trifluoropropyl)phenyl)piperidin-4-yl)methoxy)-3,4-dihydro-2H-pyrano[2,3-c]pyridin-4-yl)acetic acid]
41	COc1ccc(CCC(F)(F)F)c(N2CCC(COc3cc4c(cn3)OCCC4CC(=O)O)CC2)c1 (stereo not shown) [Example 18, (6-((1-(5-methoxy-2-(3,3,3-trifluoropropyl)phenyl)piperidin-4-yl)methoxy)-3,4-dihydro-2H-pyrano[2,3-c]pyridin-4-yl)acetic acid]
103	COc1ccc(CCC(F)(F)F)c(N2CCC(COc3cc4c(cn3)OCCC4CC(=O)O)CC2)c1 (stereo not shown) [Example 8, (6-((1-(5-methoxy-2-(3,3,3-trifluoropropyl)phenyl)piperidin-4-yl)methoxy)-3,4-dihydro-2H-pyrano[2,3-c]pyridin-4-yl)acetic acid]
104	COc1ccc(C2CCN(CC(F)(F)F)CC2)c(N2CCC(COc3cc4c(cn3)OCCC4CC(=O)O)CC2)c1 (stereo not shown) [Example 9, (6-((1-(5-methoxy-2-(1-(2,2,2-trifluoroethyl)piperidin-4-yl)phenyl)piperidin-4-yl)methoxy)-3,4-dihydro-2H-pyrano[2,3-c]pyridin-4-yl)acetic acid]
54	COc1ccc(C2CCN(CC(F)(F)F)CC2)c(N2CCC(COc3cc4c(cn3)OCCC4CC(=O)O)CC2)c1 (stereo not shown) [Example 28, (6-((1-(5-methoxy-2-(1-(2,2,2-trifluoroethyl)piperidin-4-yl)phenyl)piperidin-4-yl)methoxy)-3,4-dihydro-2H-pyrano[2,3-c]pyridin-4-yl)acetic acid]
